Results taken from ChEMBL document CHEMBL5050844 (2019).

Assays:
[1] = Induction of anti-CD3 antibodies-stimulated human T cell activation at 10 uM assessed fold increase in IFN-gamma secretion measured by ELISA assay; format: functional, T cell line; note: reference of the scale not given here
[2] = Induction of anti-CD3/CD28 antibodies-stimulated human T cell activation at 0.3 uM assessed fold increase in CD25 expression measured by ELISA assay; format: functional, T cell line
[3] = Induction of anti-CD3 antibodies-stimulated human CD8+ T cell activation at 1.11 uM assessed fold increase in cell proliferation measured by flow cytometry analysis; format: functional, T cell line; note: reference of the scale not given here
[4] = Induction of activation of human CD56+ CD3- NK cells co-cultured with human K562 cells in 5:1 ratio and assessed as increase in TNF-alpha secretion at 10 uM measured by ELISA assay; format: functional, Natural killer cell
[5] = Induction of activation of human CD56+ CD3- NK cells co-cultured with human K562 cells in 1:1 ratio and assessed as increase in IFN-gamma secretion at 1 uM measured by ELISA assay; format: functional, Natural killer cell
[6] = Induction of anti-CD3 antibodies-stimulated human T cell activation at 8 uM assessed fold increase in IL-2 secretion measured by ELISA assay; format: functional, T cell line; note: reference of the scale not given here
[7] = Induction of anti-CD3 antibodies-stimulated human CD8+ T cell activation in immunocompetent mouse assessed fold increase in CD25 expression at 90 mg/kg, po administered twice a day; format: functional; note: reference of the scale not given here
[8] = Induction of anti-CD3 antibodies-stimulated human CD4+ T cell activation in immunocompetent mouse assessed fold increase in CD25 expression at 90 mg/kg, ip administered twice a day; format: functional; note: reference of the scale not given here
[9] = Induction of anti-CD3/CD28 antibodies-stimulated human T cell activation at 1.11 uM assessed fold increase in IFN-gamma secretion measured by ELISA assay; format: functional, T cell line
[10] = Induction of anti-CD3/CD28 antibodies-stimulated human T cell activation at 10 uM assessed fold increase in GM-CSF secretion measured by ELISA assay; format: functional, T cell line
[11] = Induction of anti-CD3/CD28 antibodies-stimulated human T cell activation at 10 uM assessed fold increase in IFN-gamma secretion measured by ELISA assay; format: functional, T cell line
[12] = Induction of activation of human CD56+ CD3- NK cells co-cultured with human K562 cells in 1:1 ratio and assessed as increase in MIP1beta secretion at 1 uM measured by ELISA assay; format: functional, Natural killer cell
[13] = Induction of activation of human CD56+ CD3- NK cells co-cultured with human K562 cells in 5:1 ratio and assessed as increase in MIP1beta secretion at 1 uM measured by ELISA assay; format: functional, Natural killer cell
[14] = Induction of activation of human CD56+ CD3- NK cells co-cultured with human K562 cells in 5:1 ratio and assessed as increase in IFN-gamma secretion at 1 uM measured by ELISA assay; format: functional, Natural killer cell
[15] = Induction of anti-CD3 antibodies-stimulated human T cell activation at 10 uM assessed fold increase in GM-CSF secretion measured by ELISA assay; format: functional, T cell line; note: reference of the scale not given here
[16] = Induction of activation of human CD56+ CD3- NK cells co-cultured with human K562 cells in 5:1 ratio and assessed as increase in IFN-gamma secretion at 10 uM measured by ELISA assay; format: functional, Natural killer cell
[17] = Induction of activation of human CD56+ CD3- NK cells co-cultured with human K562 cells in 5:1 ratio and assessed as increase in MIP1beta secretion at 10 uM measured by ELISA assay; format: functional, Natural killer cell
[18] = Induction of activation of human CD56+ CD3- NK cells co-cultured with human K562 cells in 1:1 ratio and assessed as increase in MIP1beta secretion at 10 uM measured by ELISA assay; format: functional, Natural killer cell
[19] = Induction of activation of human CD56+ CD3- NK cells co-cultured with human K562 cells in 1:1 ratio and assessed as increase in TNF-alpha secretion at 1 uM measured by ELISA assay; format: functional, Natural killer cell
[20] = Induction of anti-CD3 antibodies-stimulated human exhausted CD8+ T cell activation assessed fold increase in CTLA4 expression measured by flow cytometry analysis; format: functional, T cell line; note: reference of the scale not given here
[21] = Induction of anti-CD3 antibodies-stimulated human exhausted T cell activation assessed fold increase in GM-CSF secretion measured by ELISA assay; format: functional, T cell line; note: reference of the scale not given here
[22] = Induction of anti-CD3 antibodies-stimulated human CD4+ T cell activation at 10 uM assessed fold increase in CD69 expression measured by flow cytometry analysis; format: functional, T cell line; note: reference of the scale not given here
[23] = Induction of anti-CD3 antibodies-stimulated human exhausted CD4+ T cell activation assessed fold increase in CTLA4 expression measured by flow cytometry analysis; format: functional, T cell line; note: reference of the scale not given here
[24] = Induction of anti-CD3 antibodies-stimulated human T cell activation at 1 uM assessed fold increase in IL-2 secretion measured by ELISA assay; format: functional, T cell line; note: reference of the scale not given here
[25] = Induction of anti-CD3 antibodies-stimulated human CD8+ T cell activation at 10 uM assessed fold increase in cell proliferation measured by flow cytometry analysis; format: functional, T cell line; note: reference of the scale not given here
[26] = Induction of anti-CD3/CD28 antibodies-stimulated human CD8+ T cell activation at 1.11 uM assessed fold increase in CD69 expression measured by flow cytometry analysis; format: functional, T cell line
[27] = Induction of activation of human CD56+ CD3- NK cells co-cultured with human K562 cells in 5:1 ratio and assessed as increase in TNF-alpha secretion at 1 uM measured by ELISA assay; format: functional, Natural killer cell
[28] = target: T1, E3 ubiquitin-protein ligase CBL-B (Homo sapiens, UniProt Q13191); experiment: Inhibition of N-terminal Avi-tagged human CBL-B (36 to 427 residues) incubated with 60 nM Src kinase for 1.5 hrs followed by incubation with fluorescently labeled UbcH5B-Ub for 1 hr and measured by TR-FRET assay; format: single protein
T1 sequence (Q13191 whole entry, the tested form may be a part): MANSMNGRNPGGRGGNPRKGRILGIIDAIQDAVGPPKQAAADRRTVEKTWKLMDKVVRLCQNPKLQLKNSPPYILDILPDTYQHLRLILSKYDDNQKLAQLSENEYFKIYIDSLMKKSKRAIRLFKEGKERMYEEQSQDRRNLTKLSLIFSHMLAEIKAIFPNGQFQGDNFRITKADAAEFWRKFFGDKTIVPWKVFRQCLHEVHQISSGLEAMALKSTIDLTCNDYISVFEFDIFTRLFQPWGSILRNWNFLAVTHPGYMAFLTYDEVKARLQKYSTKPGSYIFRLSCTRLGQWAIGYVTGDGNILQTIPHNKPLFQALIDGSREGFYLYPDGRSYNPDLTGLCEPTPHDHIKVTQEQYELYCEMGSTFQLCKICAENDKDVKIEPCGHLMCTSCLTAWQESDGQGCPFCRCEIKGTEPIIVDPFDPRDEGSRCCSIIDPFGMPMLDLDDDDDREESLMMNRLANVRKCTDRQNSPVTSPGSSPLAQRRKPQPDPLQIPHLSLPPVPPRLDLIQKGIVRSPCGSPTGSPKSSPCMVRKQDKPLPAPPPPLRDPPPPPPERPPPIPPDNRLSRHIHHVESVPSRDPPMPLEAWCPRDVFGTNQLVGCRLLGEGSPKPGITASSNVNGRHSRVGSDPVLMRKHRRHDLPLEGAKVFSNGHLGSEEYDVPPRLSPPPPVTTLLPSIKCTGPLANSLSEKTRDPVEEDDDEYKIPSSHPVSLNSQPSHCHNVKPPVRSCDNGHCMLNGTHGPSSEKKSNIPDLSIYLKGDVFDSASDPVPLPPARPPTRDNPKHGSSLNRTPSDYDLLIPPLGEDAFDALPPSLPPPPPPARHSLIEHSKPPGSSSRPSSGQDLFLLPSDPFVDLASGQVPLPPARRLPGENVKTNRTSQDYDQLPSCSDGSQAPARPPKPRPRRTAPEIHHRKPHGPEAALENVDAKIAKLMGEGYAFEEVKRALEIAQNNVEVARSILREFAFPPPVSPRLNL

[29] = Induction of anti-CD3 antibodies-stimulated human CD8+ T cell activation in immunocompetent mouse assessed fold increase in CD25 expression at 180 mg/kg, po administered twice a day; format: functional; note: reference of the scale not given here
[30] = Induction of anti-CD3 antibodies-stimulated human CD4+ T cell activation in immunocompetent mouse assessed fold increase in CD25 expression at 135 mg/kg, po administered twice a day; format: functional; note: reference of the scale not given here
[31] = Induction of anti-CD3 antibodies-stimulated human CD4+ T cell activation in immunocompetent mouse assessed fold increase in CD25 expression at 90 mg/kg, po administered twice a day; format: functional; note: reference of the scale not given here
[32] = Induction of anti-CD3 antibodies-stimulated human CD8+ T cell activation in immunocompetent mouse assessed fold increase in CD25 expression at 90 mg/kg, ip administered thrice a day; format: functional; note: reference of the scale not given here
[33] = Induction of anti-CD3 antibodies-stimulated human CD4+ T cell activation in immunocompetent mouse assessed fold increase in CD25 expression at 180 mg/kg, po administered twice a day; format: functional; note: reference of the scale not given here
[34] = target: T1, E3 ubiquitin-protein ligase CBL-B; experiment: Binding affinity towards N-terminal biotinylated Avi-tagged human CBL-B (36 to 427 residues) measured by surface plasmon resonance assay
[35] = Induction of anti-CD3 antibodies-stimulated human CD8+ T cell activation in immunocompetent mouse assessed fold increase in CD25 expression at 135 mg/kg, po administered twice a day; format: functional; note: reference of the scale not given here

SMILES | fold change (FC) [1] | fold change (FC) [2] | fold change (FC) [3] | fold change (FC) [6] | fold change (FC) [7] | fold change (FC) [8] | fold change (FC) [9] | fold change (FC) [10] | fold change (FC) [11] | fold change (FC) [15] | fold change (FC) [20] | fold change (FC) [21] | fold change (FC) [22] | fold change (FC) [23] | fold change (FC) [24] | fold change (FC) [25] | fold change (FC) [26] | IC50 [28] | fold change (FC) [29] | fold change (FC) [30] | further results
C[C@H](Cc1nncn1C)c1cccc(N2Cc3c(cccc3C(F)(F)F)C2=O)c1.Cl | <=2 | 1.31 | <=2 | >=0.201 | <1 | 1 | 3.01 | 1.51 | >4 | <=1.5 | 1.41 | <=1.4 | <=1.2 | 1.41 | 0.051 | <=2 | <=1.2 | < 100 nM |  |  | fold change (FC) [4]: <=1; fold change (FC) [5]: 1.01; fold change (FC) [12]: <=1; fold change (FC) [13]: <=1; fold change (FC) [14]: 1.01; fold change (FC) [16]: >=5; fold change (FC) [17]: 1.01; fold change (FC) [18]: 1.01; fold change (FC) [19]: <=1; fold change (FC) [27]: <=1
Cc1cc(C(=O)Nc2cccc([C@H](C)Cc3nncn3C)c2)nc(C2CC2)n1 | >4 | 1.51 | <=2 | >=0.201 |  |  | 2.01 | >4 | >4 | 2.01 | >1.61 | >1.61 | >1.601 | >1.61 | >=0.201 | >4 | <=1.2 | < 100 nM | 1 | 1 | fold change (FC) [4]: >=5; fold change (FC) [5]: 2.01; fold change (FC) [31]: 1; fold change (FC) [32]: 1; fold change (FC) [12]: 1.01; fold change (FC) [13]: 2.01; fold change (FC) [14]: 2.01; fold change (FC) [16]: >=5; fold change (FC) [17]: 2.01; fold change (FC) [18]: 2.01; fold change (FC) [33]: 1.51; Kd [34]: < 100 nM; fold change (FC) [19]: 2.01; fold change (FC) [35]: 1; fold change (FC) [27]: 2.01
Cc1cc(C(=O)Nc2cccc(C3(Cc4nncn4C)COC3)c2)nc(C2CC2)n1 | >4 | 1.31 | >4 | >=0.201 | 1 | 1 | 2.01 | >4 | >4 | 2.01 | <=1.4 | >1.61 | >1.601 | <=1.4 | >=0.201 | >4 | 1.201 | < 100 nM | 1 | 1.51 | fold change (FC) [31]: 1; fold change (FC) [32]: 1; fold change (FC) [33]: 1.51; Kd [34]: < 100 nM; fold change (FC) [35]: 1
Cn1cnnc1CC1(c2cccc(N3Cc4c(cc(CN5CCC6(CC6)C5)cc4C(F)(F)F)C3=O)c2)COC1 | >4 | 1.31 | >4 |  | 1 | 1 | >4 | >4 | >4 | >4 | >1.61 | 1.41 | >1.601 | >1.61 | >=0.201 | >4 | 1.201 | < 100 nM | 1 | 1.51 | fold change (FC) [31]: 1; fold change (FC) [32]: 1; fold change (FC) [33]: 2.01; fold change (FC) [35]: 1
